Assay results from patent US11739098B2 (BRISTOL-MYERS SQUIBB COMPANY, priority 2017, dated 2023).
pIC50: −log10 of the molar value.

Assays:
Type in all cases: cell-based
human TLR7 = molecular target: T1, human TLR7 (Homo sapiens, UniProt Q9NYK1); assay: TLR7 inhibition reporter assay (HEK-Blue cells, SEAP reporter, gardiquimod stimulation); conditions: HEK-Blue cells overexpressing human TLR7, SEAP reporter, gardiquimod 7.5 μM
T1 construct: host or cells: HEK-Blue cells (HEK293-derived reporter line)
T1 sequence (Q9NYK1 27-1049): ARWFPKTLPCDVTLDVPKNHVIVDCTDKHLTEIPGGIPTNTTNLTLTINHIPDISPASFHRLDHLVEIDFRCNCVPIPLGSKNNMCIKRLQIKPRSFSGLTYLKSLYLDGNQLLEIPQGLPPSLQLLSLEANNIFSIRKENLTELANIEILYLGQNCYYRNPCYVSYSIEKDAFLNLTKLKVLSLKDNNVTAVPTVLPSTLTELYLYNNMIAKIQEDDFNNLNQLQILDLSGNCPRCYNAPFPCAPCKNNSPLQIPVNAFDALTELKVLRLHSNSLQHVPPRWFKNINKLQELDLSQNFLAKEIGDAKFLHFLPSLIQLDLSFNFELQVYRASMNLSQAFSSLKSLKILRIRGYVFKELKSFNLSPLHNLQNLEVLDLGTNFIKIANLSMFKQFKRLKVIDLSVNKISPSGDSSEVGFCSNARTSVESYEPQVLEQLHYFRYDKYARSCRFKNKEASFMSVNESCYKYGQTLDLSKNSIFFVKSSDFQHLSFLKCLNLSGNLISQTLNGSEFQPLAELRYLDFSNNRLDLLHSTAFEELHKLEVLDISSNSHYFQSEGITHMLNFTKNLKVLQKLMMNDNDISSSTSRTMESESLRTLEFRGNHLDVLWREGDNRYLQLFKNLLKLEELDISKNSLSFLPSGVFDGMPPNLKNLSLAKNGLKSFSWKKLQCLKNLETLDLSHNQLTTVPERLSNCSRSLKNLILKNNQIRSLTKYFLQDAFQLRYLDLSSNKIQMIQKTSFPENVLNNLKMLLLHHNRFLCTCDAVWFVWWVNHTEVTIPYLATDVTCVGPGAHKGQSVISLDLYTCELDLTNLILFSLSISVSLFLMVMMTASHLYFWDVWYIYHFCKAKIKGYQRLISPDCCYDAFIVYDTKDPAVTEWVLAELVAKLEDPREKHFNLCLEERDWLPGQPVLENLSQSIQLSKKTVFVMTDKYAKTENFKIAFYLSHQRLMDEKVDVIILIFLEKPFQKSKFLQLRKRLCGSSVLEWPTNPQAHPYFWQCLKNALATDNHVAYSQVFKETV
Outline: (§1)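 Agonists (final): TLR7 gardiquimod 7.5 μM; TLR8 R848 15.9 μM; TLR9 ODN2006 5 nM. HEK-Blue reporter cells, 30 min RT compound pre-incubation, 0.05 nM–50 μM dose range, 22 h at 37 °C, colorimetric SEAP detection medium. % inhibition relative to agonist+DMSO and known-inhibitor wells.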

human TLR8 = molecular target: T2, human TLR8 (Homo sapiens, UniProt Q9NR97); assay: TLR8 inhibition reporter assay (HEK-Blue cells, SEAP reporter, R848 stimulation); conditions: HEK-Blue cells overexpressing human TLR8, SEAP reporter, R848 15.9 μM
T2 construct: host or cells: HEK-Blue cells (HEK293-derived reporter line)
T2 sequence (Q9NR97 27-1041): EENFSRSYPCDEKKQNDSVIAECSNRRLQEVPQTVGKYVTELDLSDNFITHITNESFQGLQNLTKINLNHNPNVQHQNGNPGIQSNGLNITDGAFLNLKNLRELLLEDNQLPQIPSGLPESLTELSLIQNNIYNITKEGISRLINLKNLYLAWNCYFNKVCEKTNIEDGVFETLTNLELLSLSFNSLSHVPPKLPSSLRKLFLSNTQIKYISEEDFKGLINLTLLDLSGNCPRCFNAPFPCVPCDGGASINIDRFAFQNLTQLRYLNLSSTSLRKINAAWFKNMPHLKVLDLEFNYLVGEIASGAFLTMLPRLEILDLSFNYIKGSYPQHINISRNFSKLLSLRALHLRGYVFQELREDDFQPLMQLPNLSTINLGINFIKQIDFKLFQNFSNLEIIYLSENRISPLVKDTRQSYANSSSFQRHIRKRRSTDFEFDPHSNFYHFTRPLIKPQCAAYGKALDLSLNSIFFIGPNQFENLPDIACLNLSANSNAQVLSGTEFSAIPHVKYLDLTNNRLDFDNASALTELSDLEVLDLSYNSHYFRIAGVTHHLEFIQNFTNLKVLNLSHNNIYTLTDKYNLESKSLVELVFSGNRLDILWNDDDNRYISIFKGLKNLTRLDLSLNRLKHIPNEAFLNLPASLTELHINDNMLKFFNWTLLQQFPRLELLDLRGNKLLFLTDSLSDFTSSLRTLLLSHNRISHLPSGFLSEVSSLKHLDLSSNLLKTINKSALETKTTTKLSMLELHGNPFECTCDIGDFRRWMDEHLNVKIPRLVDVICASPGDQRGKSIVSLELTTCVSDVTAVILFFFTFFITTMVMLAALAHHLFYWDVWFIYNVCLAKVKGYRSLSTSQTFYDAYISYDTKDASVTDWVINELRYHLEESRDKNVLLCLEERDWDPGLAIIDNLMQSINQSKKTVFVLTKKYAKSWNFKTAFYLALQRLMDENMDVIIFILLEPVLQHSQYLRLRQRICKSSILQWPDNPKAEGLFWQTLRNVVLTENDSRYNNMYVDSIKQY
Outline: as §1

human TLR9 = molecular target: T3, human TLR9 (Homo sapiens, UniProt Q9NR96); assay: TLR9 inhibition reporter assay (HEK-Blue cells, SEAP reporter, ODN2006 stimulation); conditions: HEK-Blue cells overexpressing human TLR9, SEAP reporter, ODN2006 5 nM
T3 construct: host or cells: HEK-Blue cells (HEK293-derived reporter line)
T3 sequence (Q9NR96 26-1032): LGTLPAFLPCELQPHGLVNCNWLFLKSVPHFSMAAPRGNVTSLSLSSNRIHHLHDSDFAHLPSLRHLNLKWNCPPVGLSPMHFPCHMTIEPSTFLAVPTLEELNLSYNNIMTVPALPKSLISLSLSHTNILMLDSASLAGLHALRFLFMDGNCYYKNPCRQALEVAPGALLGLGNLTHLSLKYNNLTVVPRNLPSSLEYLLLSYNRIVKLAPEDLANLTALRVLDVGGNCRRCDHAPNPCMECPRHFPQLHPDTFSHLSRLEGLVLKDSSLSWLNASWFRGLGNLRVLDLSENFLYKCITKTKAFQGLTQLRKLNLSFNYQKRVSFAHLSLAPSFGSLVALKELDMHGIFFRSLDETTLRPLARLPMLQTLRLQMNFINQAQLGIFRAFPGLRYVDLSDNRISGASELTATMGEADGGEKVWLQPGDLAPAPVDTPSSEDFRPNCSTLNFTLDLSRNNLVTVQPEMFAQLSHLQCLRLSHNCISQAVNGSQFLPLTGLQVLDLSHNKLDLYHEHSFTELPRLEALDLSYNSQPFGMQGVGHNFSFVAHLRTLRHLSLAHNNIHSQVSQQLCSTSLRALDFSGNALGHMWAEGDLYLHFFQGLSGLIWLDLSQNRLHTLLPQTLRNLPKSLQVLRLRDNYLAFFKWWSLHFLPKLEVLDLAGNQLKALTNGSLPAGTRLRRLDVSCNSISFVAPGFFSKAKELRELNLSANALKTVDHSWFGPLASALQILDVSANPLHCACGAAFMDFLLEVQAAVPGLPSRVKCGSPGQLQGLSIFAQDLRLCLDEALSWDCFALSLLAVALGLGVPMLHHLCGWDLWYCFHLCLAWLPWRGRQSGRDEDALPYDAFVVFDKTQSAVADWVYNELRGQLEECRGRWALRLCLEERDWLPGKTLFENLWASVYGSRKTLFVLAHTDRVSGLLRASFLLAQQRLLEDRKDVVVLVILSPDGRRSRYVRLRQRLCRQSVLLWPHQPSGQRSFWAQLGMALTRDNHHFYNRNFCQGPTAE
Outline: as §1

| Compound | pIC50 (human TLR7) | pIC50 (human TLR8) | pIC50 (human TLR9) |
| --- | --- | --- | --- |
| Cc1cc2ncccc2cc1-c1[nH]c2ccc(C3CCNCC3)cc2c1C(C)C [Example 140, 6-(3-isopropyl-5-(piperidin-4-yl)-1H-indol-2-yl)-7-methylquinoline] | > 7.00 | 6.00 to 7.00 | 4.30 to 6.00 |
| CNC(=O)CN1CCC(c2ccc3[nH]c(-c4cc(C)n5cc(C)nc5c4)c(C(C)C)c3c2)CC1 [Example 352, 2-(4-(2-(2,5-dimethylimidazo[1,2-a]pyridin-7-yl)-3-isopropyl-1H-indol-5-yl)piperidin-1-yl)-N-methylacetamide] | 6.00 to 7.00 | 6.00 to 7.00 | 6.00 to 7.00 |
| CC(C)c1c(-c2cc(CO)c3nnnn3c2)[nH]c2ccc(C3CCNCC3)cc12 [Example 71, (6-(3-isopropyl-5-(piperidin-4-yl)-1H-indol-2-yl)tetrazolo[1,5-a]pyridin-8-yl)methanol] | > 7.00 | 6.00 to 7.00 | 4.30 to 6.00 |
| CNC(=O)CN1CCC(c2ccc3[nH]c(-c4cn5ccnc5c(C)c4C)c(C(C)C)c3c2)CC1 [Example 413, 2-(4-(2-(7,8-dimethylimidazo[1,2-a]pyridin-6-yl)-3-isopropyl-1H-indol-5-yl)piperidin-1-yl)-N-methylacetamide] | > 7.00 | > 7.00 | 6.00 to 7.00 |
| CC(C)c1c(-c2ccc3nccn3c2)[nH]c2ccc(C3CCN(C(=O)C4CC(=O)N(C)C4)CC3)cc12 (stereo not drawn) [Example 645, 4-(4-(2-(imidazo[1,2-a]pyridin-6-yl)-3-isopropyl-1H-indol-5-yl)piperidine-1-carbonyl)-1-methylpyrrolidin-2-one] | > 7.00 | 6.00 to 7.00 | < 4.30 |
| Cc1c(-c2ccnc3[nH]nc(C)c23)[nH]c2ccc(C3CCNCC3)cc12 [Example 218, 3-methyl-4-(3-methyl-5-(piperidin-4-yl)-1H-indol-2-yl)-1H-pyrazolo[3,4-b]pyridine] | > 7.00 | > 7.00 | 6.00 to 7.00 |
| CC(C)c1c(-c2cnc3[nH]ccc3c2)[nH]c2ccc(C3CCN(C4CCN(C)CC4)CC3)cc12 [Example 802, 5-(3-isopropyl-5-(1′-methyl-[1,4′-bipiperidin]-4-yl)-1H-indol-2-yl)-1H-pyrrolo[2,3-b]pyridine] | 6.00 to 7.00 | 6.00 to 7.00 | 6.00 to 7.00 |
| CC(C)c1c(-c2cc(Cl)c3ncccc3c2)[nH]c2ccc(C3CCN(CC(=O)N(C)C)CC3)cc12 [Example 380, 2-(4-(2-(8-chloroquinolin-6-yl)-3-isopropyl-1H-indol-5-yl)piperidin-1-yl)-N,N-dimethylacetamide] | > 7.00 | > 7.00 | 4.30 to 6.00 |
| CC(C)c1c(-c2ccnc3[nH]ncc23)[nH]c2ccc(C3CCN(C(=O)CNCC(C)(C)N4CCOCC4)CC3)cc12 [Example 580, 1-(4-(3-isopropyl-2-(1H-pyrazolo[3,4-b]pyridin-4-yl)-1H-indol-5-yl)piperidin-1-yl)-2-((2-methyl-2-morpholinopropyl)amino)ethan-1-one] | > 7.00 | > 7.00 | 4.30 to 6.00 |
| Cc1nc2c(-c3[nH]c4ccc(C5CCN(C(=O)CN(C)C)CC5)cc4c3C(C)C)ccc(C)n2n1 [Example 515, 1-(4-(2-(2,5-dimethyl-[1,2,4]triazolo[1,5-a]pyridin-8-yl)-3-isopropyl-1H-indol-5-yl)piperidin-1-yl)-2-(dimethylamino)ethan-1-one] | 4.30 to 6.00 | 6.00 to 7.00 | 4.30 to 6.00 |
| COc1cc(-c2[nH]c3ccc(C4CCNCC4)cc3c2C(C)C)nn2ncnc12 [Example 38, 6-(3-isopropyl-5-(piperidin-4-yl)-1H-indol-2-yl)-8-methoxy-[1,2,4]triazolo[1,5-b]pyridazine] | > 7.00 | > 7.00 | 6.00 to 7.00 |
| CC(CN(C)C)CN1CCC(c2ccc3[nH]c(-c4ccnc5[nH]ncc45)c(C(C)C)c3c2)CC1 (stereo not drawn) [Example 846, 3-(4-(3-isopropyl-2-(1H-pyrazolo[3,4-b]pyridin-4-yl)-1H-indol-5-yl)piperidin-1-yl)-N,N,2-trimethylpropan-1-amine] | > 7.00 | > 7.00 | 6.00 to 7.00 |
| CC(C)c1c(-c2cc(CO)c3nnnn3c2)[nH]c2ccc(C3CCN(CC4(C)COC4)CC3)cc12 [Example 781, (6-(3-isopropyl-5-(1-((3-methyloxetan-3-yl)methyl)piperidin-4-yl)-1H-indol-2-yl)tetrazolo[1,5-a]pyridin-8-yl)methanol] | > 7.00 | > 7.00 | 4.30 to 6.00 |
| Cc1nc2cc(-c3[nH]c4ccc(C5CCN(C(=O)CN(C)C)CC5)cc4c3C(C)C)ccn2n1 [Example 538, 2-(dimethylamino)-1-(4-(3-isopropyl-2-(2-methyl-[1,2,4]triazolo[1,5-a]pyridin-7-yl)-1H-indol-5-yl)piperidin-1-yl)ethan-1-one] | > 7.00 | 6.00 to 7.00 | 4.30 to 6.00 |
